In ChEMBL document CHEMBL3046124, “QSAR for Binding Affinity of Substituted Dibenzoylhydrazines to Intact Sf-9 Cells” (J Pestic Sci, 2005):

What follows are compounds tested against T1, Ecdysone receptor (Spodoptera frugiperda, UniProt Q8MWR1+Q8MWR2) (assay: Displacement of [3H]PonA from ecdysone receptor in Spodoptera frugiperda (fall armyworm) Sf-9 cells after 30 min by liquid scintillation counting).
T1 sequence (Q8MWR2 whole entry): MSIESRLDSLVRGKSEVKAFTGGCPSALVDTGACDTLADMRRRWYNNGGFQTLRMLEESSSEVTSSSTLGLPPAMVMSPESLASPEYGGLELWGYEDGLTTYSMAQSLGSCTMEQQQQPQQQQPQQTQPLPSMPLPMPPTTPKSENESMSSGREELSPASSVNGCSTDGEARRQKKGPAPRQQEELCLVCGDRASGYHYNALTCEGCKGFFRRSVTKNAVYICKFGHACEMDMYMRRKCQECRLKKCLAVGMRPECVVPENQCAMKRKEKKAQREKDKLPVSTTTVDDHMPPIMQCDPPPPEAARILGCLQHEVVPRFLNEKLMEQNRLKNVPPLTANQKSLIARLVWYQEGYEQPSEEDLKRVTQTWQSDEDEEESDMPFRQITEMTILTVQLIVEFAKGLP
T1 sequence (Q8MWR1 whole entry): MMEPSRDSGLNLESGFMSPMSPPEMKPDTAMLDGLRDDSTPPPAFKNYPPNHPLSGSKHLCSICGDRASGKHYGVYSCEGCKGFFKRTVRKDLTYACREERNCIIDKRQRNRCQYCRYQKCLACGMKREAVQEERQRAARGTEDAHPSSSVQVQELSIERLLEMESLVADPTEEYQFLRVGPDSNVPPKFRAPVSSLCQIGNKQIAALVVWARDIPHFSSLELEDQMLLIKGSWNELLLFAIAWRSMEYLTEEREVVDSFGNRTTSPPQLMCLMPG
Format: cell-based
For `CC(C)(C)N(NC(=O)c1ccccc1)C(=O)c1ccccc1Cl`, the IC50 was 83.2 nM. In the case of `CC(C)(C)N(NC(=O)c1ccc(Br)cc1)C(=O)c1ccccc1Cl`, the IC50 is reported as 20.4 nM. Work on `CCCc1ccc(C(=O)NN(C(=O)c2ccccc2Cl)C(C)(C)C)cc1` yielded an IC50 of 22.9 nM. Compound `CC(C)c1ccc(C(=O)NN(C(=O)c2ccccc2Cl)C(C)(C)C)cc1` has an IC50 of 15.1 nM. `COc1ccc(C(=O)NN(C(=O)c2ccccc2Cl)C(C)(C)C)cc1` was tested, and the IC50 was 61.7 nM. `CC(C)(C)N(NC(=O)c1ccc(-c2ccccc2)cc1)C(=O)c1ccccc1Cl` showed an IC50 of 6760 nM. In the case of `CC(=O)c1ccc(C(=O)NN(C(=O)c2ccccc2Cl)C(C)(C)C)cc1`, the IC50 is reported as 427 nM. For `CC(C)(C)N(NC(=O)c1ccc(C#N)cc1)C(=O)c1ccccc1Cl`, the IC50 was 1820 nM. `Cc1ccc(C(=O)NN(C(=O)c2ccccc2Cl)C(C)(C)C)cc1` gave an IC50 of 52.5 nM. `CCc1ccc(C(=O)NN(C(=O)c2ccccc2Cl)C(C)(C)C)cc1` gave an IC50 of 12.9 nM. Compound `CC(C)(C)N(NC(=O)c1ccc(F)cc1)C(=O)c1ccccc1Cl` has an IC50 of 51.3 nM. In the case of `CC(C)(C)N(NC(=O)c1ccc(Cl)cc1)C(=O)c1ccccc1Cl`, the IC50 is reported as 129 nM. Compound `CC(C)(C)N(NC(=O)c1ccc(I)cc1)C(=O)c1ccccc1Cl` has an IC50 of 50.1 nM. `CCCCc1ccc(C(=O)NN(C(=O)c2ccccc2Cl)C(C)(C)C)cc1` was tested, and the IC50 was 5.37 nM. Work on `CC(C)(C)c1ccc(C(=O)NN(C(=O)c2ccccc2Cl)C(C)(C)C)cc1` yielded an IC50 of 21.9 nM. For `CC(C)(C)N(NC(=O)c1ccc(S(C)(=O)=O)cc1)C(=O)c1ccccc1Cl`, the IC50 was 2880 nM. For `CC(C)(C)N(NC(=O)c1ccc(C(F)(F)F)cc1)C(=O)c1ccccc1Cl`, the IC50 was 110 nM. With `CC(C)(C)N(NC(=O)c1ccc([N+](=O)[O-])cc1)C(=O)c1ccccc1Cl` the IC50 was 380 nM.
